Laboratory results published in patent publication US20250197372A1 (priority 2020, published 2025).

These molecules were tested against rat maltase (partially purified alpha-glucosidase from intestinal rat powder) (assay: Intestinal alpha-glucosidase assay, maltose substrate (Glucose GO Kit)).
Assay type: biochemical
Summary of the method: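 Glucose release is the read-out: compounds at multiple dilutions are first held with partially purified rat intestinal alpha-glucosidase for 60 min at 37 °C, after which maltose or sucrose substrate reacts for 30 min at 37 °C before a 5 min 90 °C stop. IC50 comes from a four-parameter logistic fit.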
Work on OC[C@@H]1[C@@H](O)[C@H](O)[C@@H](O)CN1CCCCCCNc1cc(-c2ncccn2)cc(C2CC2)c1 [Compound 1009, (2R,3R,4R,5S)-1-(6-{[3-cyclopropyl-5-(pyrimidin-2-yl)phenyl]amino}hexyl)-2-(hydroxymethyl)piperidine-3,4,5-triol] yielded an IC50 of 7 nM.
Molecule OC[C@@H]1[C@@H](O)[C@H](O)[C@@H](O)CN1CCCCCCNc1cc(-c2cccnn2)cc(C2CC2)c1 [Compound 1008, (2R,3R,4R,5S)-1-(6-{[3-cyclopropyl-5-(pyridazin-3-yl)phenyl]amino}hexyl)-2-(hydroxymethyl)piperidine-3,4,5-triol] has an IC50 of 6 nM.
For OC[C@@H]1[C@@H](O)[C@H](O)[C@@H](O)CN1CCCCCCNc1cc(Cl)cc(CN2CCCO2)c1 [Compound 1183, (2R,3R,4R,5S)-1-[6-({3-chloro-5-[(1,2-oxazolidin-2-yl)methyl]phenyl}amino)hexyl]-2-(hydroxymethyl)piperidine-3,4,5-triol], the IC50 was 15 nM.
Molecule O=[N+]([O-])c1cc(C2CC2)ccc1NCCCCCCN1C[C@H](O)[C@@H](O)[C@H](O)[C@H]1CO [Compound 1136, (2R,3R,4R,5S)-1-{6-[(4-cyclopropyl-2-nitrophenyl)amino]hexyl}-2-(hydroxymethyl)piperidine-3,4,5-triol] has an IC50 of under 1 nM.
Molecule COc1cc(C#N)cc(NCCc2ccc(CCN3C[C@H](O)[C@@H](O)[C@H](O)[C@H]3CO)cc2)c1 [Compound 1133, 3-methoxy-5-{[2-(4-{2-[(2R,3R,4R,5S)-3,4,5-trihydroxy-2-(hydroxymethyl)piperidin-1-yl]ethyl}phenyl)ethyl]amino}benzonitrile] has an IC50 of 97 nM.
[N-]=[N+]=Nc1ccc(NCCc2ccc(CCN3C[C@@H](O)[C@H](O)[C@@H](O)[C@@H]3CO)c3ccccc23)c([N+](=O)[O-])c1 (stereo in doubt) [Compound 1178, (2S,3S,4S,5R)-1-[2-(4-{2-[(4-azido-2-nitrophenyl)amino]ethyl}naphthalen-1-yl)ethyl]-2-(hydroxymethyl)piperidine-3,4,5-triol] was tested, and the IC50 was 3480 nM.
CC(C)(C)c1cc(NCCCCCCN2C[C@H](O)[C@@H](O)[C@H](O)[C@H]2CO)cc(-c2ncccn2)c1 [Compound 1151, (2R,3R,4R,5S)-1-(6-{[3-tert-butyl-5-(pyrimidin-2-yl)phenyl]amino}hexyl)-2-(hydroxymethyl)piperidine-3,4,5-triol] showed an IC50 of under 1 nM.
With OC[C@@H]1[C@@H](O)[C@H](O)[C@@H](O)CN1Cc1ccc(CNc2cc(-c3ncccn3)cc(C3CC3)c2)cc1 [Compound 1013, (2R,3R,4R,5S)-1-{[4-({[3-cyclopropyl-5-(pyrimidin-2-yl)phenyl]amino}methyl)phenyl]methyl}-2-(hydroxymethyl)piperidine-3,4,5-triol] the IC50 was 5 nM.
COC(OC)c1cc(NCCCCCCN2C[C@H](O)[C@@H](O)[C@H](O)[C@H]2CO)cc(-c2ncccn2)c1 [Compound 1124, (2R,3R,4R,5S)-1-(6-{[3-(dimethoxymethyl)-5-(pyrimidin-2-yl)phenyl]amino}hexyl)-2-(hydroxymethyl)piperidine-3,4,5-triol] showed an IC50 of 23 nM.
Work on Cc1nc2cc(-c3ncccn3)ccc2n1CCCCCCN1C[C@H](O)[C@@H](O)[C@H](O)[C@H]1CO [Compound 1339, (2R,3R,4R,5S)-2-(hydroxymethyl)-1-{6-[2-methyl-5-(pyrimidin-2-yl)-1H-1,3-benzodiazol-1-yl]hexyl}piperidine-3,4,5-triol] yielded an IC50 of 14 nM.
In the case of OC[C@@H]1[C@@H](O)[C@H](O)[C@@H](O)CN1CCCCCCNc1ccc(-c2cnccn2)cc1Cl [Compound 1198, (2R,3R,4R,5S)-1-(6-{[2-chloro-4-(pyrazin-2-yl)phenyl]amino}hexyl)-2-(hydroxymethyl)piperidine-3,4,5-triol], the IC50 is reported as under 1 nM.
OC[C@@H]1[C@@H](O)[C@H](O)[C@@H](O)CN1Cc1ccc(CNc2cc(C3CC3)cc(N3CCOCC3)c2)cc1 [Compound 1010, (2R,3R,4R,5S)-1-{[4-({[3-cyclopropyl-5-(morpholin-4-yl)phenyl]amino}methyl)phenyl]methyl}-2-(hydroxymethyl)piperidine-3,4,5-triol] gave an IC50 of 12 nM.
[N-]=[N+]=Nc1ccc(NCC/C=C/CCN2C[C@H](O)[C@@H](O)[C@H](O)[C@H]2CO)c([N+](=O)[O-])c1 [Compound 1260, (2R,3R,4R,5S)-1-[(3E)-6-[(4-azido-2-nitrophenyl)amino]hex-3-en-1-yl]-2-(hydroxymethyl)piperidine-3,4,5-triol] was tested, and the IC50 was under 1 nM.
CS(=O)(=O)c1cc(NCCCCCCN2C[C@H](O)[C@@H](O)[C@H](O)[C@H]2CO)cc(-c2ncccn2)c1 [Compound 1128, (2R,3R,4R,5S)-2-(hydroxymethyl)-1-(6-{[3-methanesulfonyl-5-(pyrimidin-2-yl)phenyl]amino}hexyl)piperidine-3,4,5-triol] showed an IC50 of under 1 nM.
O=[N+]([O-])c1cc(-c2ccccc2)ccc1NCCCCCCN1C[C@H](O)[C@@H](O)[C@H](O)[C@H]1CO [Compound 1138, (2R,3R,4R,5S)-2-(hydroxymethyl)-1-[6-({3-nitro-[1,1′-biphenyl]-4-yl}amino)hexyl]piperidine-3,4,5-triol] showed an IC50 of under 1 nM.
O=Cc1cc(-c2ncccn2)ccc1NCCCCCCN1C[C@H](O)[C@@H](O)[C@H](O)[C@H]1CO [Compound 1184, 5-(pyrimidin-2-yl)-2-({6-[(2R,3R,4R,5S)-3,4,5-trihydroxy-2-(hydroxymethyl)piperidin-1-yl]hexyl}amino)benzaldehyde] gave an IC50 of 6 nM.
Work on COCCc1ccc(CCCCCN2C[C@H](O)[C@@H](O)[C@H](O)[C@H]2CO)cc1 [Compound 1307, (2R,3R,4R,5S)-2-(hydroxymethyl)-1-{5-[4-(2-methoxyethyl)phenyl]pentyl}piperidine-3,4,5-triol] yielded an IC50 of 32 nM.
Molecule COc1cc(NCCc2ccc(CCN3C[C@H](O)[C@@H](O)[C@H](O)[C@H]3CO)cc2)cc(-c2cccnn2)c1 [Compound 1157, (2R,3R,4R,5S)-2-(hydroxymethyl)-1-{2-[4-(2-{[3-methoxy-5-(pyridazin-3-yl)phenyl]amino}ethyl)phenyl]ethyl}piperidine-3,4,5-triol] has an IC50 of 107 nM.
CS(=O)(=O)Nc1ccc(NCCCCCCN2C[C@H](O)[C@@H](O)[C@H](O)[C@H]2CO)c([N+](=O)[O-])c1 [Compound 1300, N-[3-nitro-4-({6-[(2R,3R,4R,5S)-3,4,5-trihydroxy-2-(hydroxy-methyl)piperidin-1-yl]hexyl}amino)phenyl]methanesulfonamide] showed an IC50 of under 10 nM.
In the case of [N-]=[N+]=Nc1ccc(NCCc2ccc(CCN3C[C@H](O)[C@@H](O)[C@H](O)[C@H]3CO)c3c2OCCO3)c([N+](=O)[O-])c1 [Compound 1173, (2R,3R,4R,5S)-1-[2-(8-{2-[(4-azido-2-nitrophenyl)amino]ethyl}-2,3-dihydro-1,4-benzodioxin-5-yl)ethyl]-2-(hydroxymethyl)piperidine-3,4,5-triol], the IC50 is reported as 48 nM.
With N#Cc1cc(Cl)cc(NCCc2ccc(CCN3C[C@H](O)[C@@H](O)[C@H](O)[C@H]3CO)cc2)c1 [Compound 1134, 3-chloro-5-{[2-(4-{2-[(2R,3R,4R,5S)-3,4,5-trihydroxy-2-(hydroxymethyl)piperidin-1-yl]ethyl}phenyl)ethyl]amino}benzonitrile] the IC50 was 130 nM.
CS(=O)(=O)c1cc(NCc2cccc(CN3C[C@H](O)[C@@H](O)[C@H](O)[C@H]3CO)c2)cc(-c2ncccn2)c1 [Compound 1041, (2R,3R,4R,5S)-2-(hydroxymethyl)-1-{[3-({[3-methanesulfonyl-5-(pyrimidin-2-yl)phenyl]amino}methyl)phenyl]methyl}piperidine-3,4,5-triol] was tested, and the IC50 was 79 nM.
Molecule N#Cc1cc(NCCCCCCN2C[C@H](O)[C@@H](O)[C@H](O)[C@H]2CO)cc(-c2ncccn2)c1 [Compound 1130, 3-(pyrimidin-2-yl)-5-({6-[(2R,3R,4R,5S)-3,4,5-trihydroxy-2-(hydroxymethyl)piperidin-1-yl]hexyl}amino)benzonitrile] has an IC50 of 4 nM.
